Patent publication US6274715A, “Tricyclic erythromycin derivatives” (priority 1997, dated 2001)
Converted amounts (≈) assume the structure as drawn.

Experiments:
Type in all cases: cell-based
[1] = tested on: STAPHYLOCOCCUS AUREUS A-5278; assay: In vitro antibacterial activity, MIC, BHI agar dilution; conditions: S. aureus A-5278, unit assumed
[2] = tested on: STAPHYLOCOCCUS AUREUS CMX 553; assay: as above; conditions: S. aureus CMX 553, unit assumed
[3] = tested on: STREPTOCOCCUS PYOGENES 930; assay: as above; conditions: S. pyogenes 930, unit assumed
[4] = tested on: PSEUDOMONAS AERUGINOSA DPHD-5263; assay: as above; conditions: P. aeruginosa DPHD-5263, unit assumed
[5] = tested on: PSEUDOMONAS AERUGINOSA 5007; assay: as above; conditions: P. aeruginosa 5007, unit assumed
[6] = tested on: PSEUDOMONAS AERUGINOSA BMH10; assay: as above; conditions: P. aeruginosa BMH10, unit assumed
[7] = tested on: STAPHYLOCOCCUS AUREUS CMX 642A; assay: as above; conditions: S. aureus CMX 642A, unit assumed
ESCHERICHIA COLI H560 = assay: as above; conditions: E. coli H560, unit assumed
[8] = tested on: PSEUDOMONAS AERUGINOSA K799/61; assay: as above; conditions: P. aeruginosa K799/61, unit assumed
[9] = tested on: STAPHYLOCOCCUS AUREUS 1775; assay: as above; conditions: S. aureus 1775, unit assumed
[10] = tested on: STREPTOCOCCUS PYOGENES EES61; assay: as above; conditions: S. pyogenes EES61, unit assumed
[11] = tested on: STREPTOCOCCUS PYOGENES PIU 2548; assay: as above; conditions: S. pyogenes PIU 2548, unit assumed
M[…] ATCC 4698 = assay: as above; conditions: M. luteus ATCC 4698, unit assumed
How it was run: (§1)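 BHI agar dilution, 12 plates; inoculum 1:100 (1:10 slow-growing strains), Steers replicator; 35-37° C, 20-24 h. MIC = lowest conc. with no growth/slight haze/sparse colonies vs growth control, visual read. Erythromycin A reference plate.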

STR[…] 508 = assay: as above; conditions: S. agalactiae CMX 508, unit assumed
How it was run: as §1

M[…] ATCC 9341 = assay: as above; conditions: M. luteus ATCC 9341, unit assumed
How it was run: as §1

EN[…] ATCC 8043 = assay: as above; conditions: E. faecium ATCC 8043, unit assumed
How it was run: as §1

[12] = tested on: PROVIDENCIA STUARTII CMX 640; conditions: P. stuartii CMX 640; BHI agar; unit assumed
ESCHERICHIA COLI DC-2 = assay: In vitro antibacterial activity, MIC, BHI agar dilution; conditions: E. coli DC-2, unit assumed
[13] = tested on: STREPTOCOCCUS BOVIS A-5169; assay: as above; conditions: S. bovis A-5169, unit assumed
ESCHERICHIA COLI JUHL = conditions: E. coli JUHL; BHI agar; unit assumed
[14] = tested on: STAPHYLOCOCCUS AUREUS A5177; assay: In vitro antibacterial activity, MIC, BHI agar dilution; conditions: S. aureus A5177, unit assumed
[15] = tested on: PSEUDOMONAS AERUGINOSA DPHD-2862; assay: as above; conditions: P. aeruginosa DPHD-2862, unit assumed
CANDIDA ALBICANS CCH 442 = assay: as above; conditions: C. albicans CCH 442, unit assumed
[16] = tested on: STAPHYLOCOCCUS EPIDERMIDIS 3519; conditions: S. epidermidis 3519; BHI agar; unit assumed
PSEUDOMONAS CEPACIA 296I = assay: In vitro antibacterial activity, MIC, BHI agar dilution; conditions: P. cepacia 296I, unit assumed
[17] = tested on: PSEUDOMONAS AERUGINOSA K799/WT; assay: as above; conditions: P. aeruginosa K799/WT, unit assumed
[18] = tested on: KLEBSIELLA PNEUMONIAE ATCC 8045; assay: as above; conditions: K. pneumoniae ATCC 8045, unit assumed
ESCHERICHIA COLI SS = assay: as above; conditions: E. coli SS, unit assumed
ESCHERICHIA COLI KNK 437 = conditions: E. coli KNK 437; BHI agar; unit assumed
[19] = tested on: MYCOBACTERIUM SMEGMATIS ATCC 114; assay: In vitro antibacterial activity, MIC, BHI agar dilution; conditions: M. smegmatis ATCC 114, unit assumed
[20] = tested on: ENTEROBACTER AEROGENES ATCC 13048; assay: as above; conditions: E. aerogenes ATCC 13048, unit assumed
[21] = tested on: STAPHYLOCOCCUS AUREUS NCTC10649M; assay: as above; conditions: S. aureus NCTC10649M, unit assumed
[22] = tested on: STAPHYLOCOCCUS AUREUS ATCC 6538P; assay: as above; conditions: S. aureus ATCC 6538P, 35-37° C., 20 to 24 hours, unit assumed

Structure (SMILES) | MIC [1] [µg/mL] | MIC [2] [µg/mL] | MIC [3] [µg/mL] | MIC [4] [µg/mL] | MIC [5] [µg/mL] | MIC [6] [µg/mL] | MIC [7] [µg/mL] | MIC (ESCHERICHIA COLI H560) [µg/mL] | MIC [8] [µg/mL] | MIC [9] [µg/mL] | MIC [10] [µg/mL] | MIC [11] [µg/mL] | MIC (M[…] ATCC 4698) [µg/mL] | MIC (M[…] ATCC 9341) [µg/mL] | MIC (EN[…] ATCC 8043) [µg/mL] | MIC [12] [µg/mL] | MIC (ESCHERICHIA COLI DC-2) [µg/mL] | MIC (ESCHERICHIA COLI JUHL) [µg/mL] | MIC [14] [µg/mL] | MIC [15] [µg/mL] | other results
CC[C@H]1OC(=O)[C@H](C)C(=O)[C@H](C)[C@@H](O[C@@H]2O[C@H](C)C[C@H](N(C)C)[C@H]2O)[C@](C)(OC)C[C@@H](C)C2=NC3CN(Cc4ccccc4)CC3N3C(=O)O[C@@]1(C)[C@H]3[C@H]2C (stereo partly shown) [Example 110] | > 100 | 0.2 (≈ 0.26 µM) | 50 (≈ 65 µM) | > 100 | > 100 | 50 (≈ 65 µM) | 0.39 (≈ 0.507 µM) | 12.5 (≈ 16.3 µM) | 1.56 (≈ 2.03 µM) | > 100 | 0.005 (≈ 0.0065 µM) | 0.2 (≈ 0.26 µM) | 0.78 (≈ 1.01 µM) | 0.05 (≈ 0.065 µM) | 0.05 (≈ 0.065 µM) | > 100 | 25 (≈ 32.5 µM) | 50 (≈ 65 µM) | 0.2 (≈ 0.26 µM) | > 100 | MIC (STR[…] 508): 0.02 µg/mL (≈ 0.026 µM); MIC [13]: 0.02 µg/mL (≈ 0.026 µM); MIC (CANDIDA ALBICANS CCH 442): > 100 µg/mL; MIC [16]: 0.2 µg/mL (≈ 0.26 µM); MIC (PSEUDOMONAS CEPACIA 296I): 50 µg/mL (≈ 65 µM); MIC [17]: > 100 µg/mL; MIC [18]: > 100 µg/mL; MIC (ESCHERICHIA COLI SS): 0.2 µg/mL (≈ 0.26 µM); MIC (ESCHERICHIA COLI KNK 437): 50 µg/mL (≈ 65 µM)
CCOC(=O)CCN1CC2N=C3C(C)CC(C)(OC)C(OC4OC(C)CC(N(C)C)C4O)C(C)C(=O)C(C)C(=O)OC(CC)C4(C)OC(=O)N(C2C1)C4C3C (stereo not shown) [Example 130] | > 100 | 1.56 (≈ 2 µM) | > 100 | > 100 | > 100 | > 100 | 1.56 (≈ 2 µM) | > 100 | 3.1 (≈ 3.98 µM) | > 100 | 0.1 (≈ 0.128 µM) | 6.2 (≈ 7.96 µM) | 0.78 (≈ 1 µM) | 0.2 (≈ 0.257 µM) | 0.2 (≈ 0.257 µM) | > 100 | > 100 | > 100 | 0.78 (≈ 1 µM) | > 100 | MIC [19]: 25 µg/mL (≈ 32.1 µM); MIC (STR[…] 508): 0.1 µg/mL (≈ 0.128 µM); MIC [20]: > 100 µg/mL; MIC [13]: 0.1 µg/mL (≈ 0.128 µM); MIC (CANDIDA ALBICANS CCH 442): > 100 µg/mL; MIC [16]: 3.1 µg/mL (≈ 3.98 µM); MIC (PSEUDOMONAS CEPACIA 296I): > 100 µg/mL; MIC [17]: > 100 µg/mL; MIC [18]: > 100 µg/mL; MIC (ESCHERICHIA COLI SS): 0.78 µg/mL (≈ 1 µM); MIC (ESCHERICHIA COLI KNK 437): > 100 µg/mL
CC[C@H]1OC(=O)[C@H](C)C(=O)[C@H](C)[C@@H](O[C@@H]2O[C@H](C)C[C@H](N(C)C)[C@H]2O)[C@](C)(OC)C[C@@H](C)C2=NCC(COC(=O)c3ccnc4ccccc34)N3C(=O)O[C@@]1(C)[C@H]3[C@H]2C (stereo partly shown) [Example 137] | > 100 | 0.05 (≈ 0.0608 µM) | 6.2 (≈ 7.53 µM) | 100 (≈ 122 µM) | 100 (≈ 122 µM) | 100 (≈ 122 µM) | 0.05 (≈ 0.0608 µM) | 12.5 (≈ 15.2 µM) | 0.2 (≈ 0.243 µM) | > 100 | 0.01 (≈ 0.0122 µM) | 0.2 (≈ 0.243 µM) | 0.2 (≈ 0.243 µM) | 0.01 (≈ 0.0122 µM) | 0.01 (≈ 0.0122 µM) | 100 (≈ 122 µM) | 12.5 (≈ 15.2 µM) | 25 (≈ 30.4 µM) | 0.02 (≈ 0.0243 µM) | 50 (≈ 60.8 µM) | MIC [19]: 0.2 µg/mL (≈ 0.243 µM); MIC [20]: 100 µg/mL (≈ 122 µM); MIC (CANDIDA ALBICANS CCH 442): > 100 µg/mL; MIC [16]: 0.05 µg/mL (≈ 0.0608 µM); MIC (PSEUDOMONAS CEPACIA 296I): 50 µg/mL (≈ 60.8 µM); MIC [17]: 50 µg/mL (≈ 60.8 µM); MIC [18]: 100 µg/mL (≈ 122 µM); MIC (ESCHERICHIA COLI SS): 0.02 µg/mL (≈ 0.0243 µM); MIC [21]: 0.05 µg/mL (≈ 0.0608 µM); MIC (ESCHERICHIA COLI KNK 437): 25 µg/mL (≈ 30.4 µM); MIC [22]: 0.02 µg/mL (≈ 0.0243 µM)
